The values that follow come from patent publication US8765940B2 (priority 2009, dated 2014).

This assay deals with PI3Kδ (Homo sapiens (Human), UniProt O00329). Format: biochemical. As to conditions: PI3Kδ Alphascreen assay. Background: Alpha assays give light when donor and acceptor beads are brought close together.

In general, Ki refers to the dissociation constant of the complex between target and ligand, obtained from inhibition or displacement. A high value points to a looser hold on the target.

Chain of PI3Kδ (O00329 whole entry): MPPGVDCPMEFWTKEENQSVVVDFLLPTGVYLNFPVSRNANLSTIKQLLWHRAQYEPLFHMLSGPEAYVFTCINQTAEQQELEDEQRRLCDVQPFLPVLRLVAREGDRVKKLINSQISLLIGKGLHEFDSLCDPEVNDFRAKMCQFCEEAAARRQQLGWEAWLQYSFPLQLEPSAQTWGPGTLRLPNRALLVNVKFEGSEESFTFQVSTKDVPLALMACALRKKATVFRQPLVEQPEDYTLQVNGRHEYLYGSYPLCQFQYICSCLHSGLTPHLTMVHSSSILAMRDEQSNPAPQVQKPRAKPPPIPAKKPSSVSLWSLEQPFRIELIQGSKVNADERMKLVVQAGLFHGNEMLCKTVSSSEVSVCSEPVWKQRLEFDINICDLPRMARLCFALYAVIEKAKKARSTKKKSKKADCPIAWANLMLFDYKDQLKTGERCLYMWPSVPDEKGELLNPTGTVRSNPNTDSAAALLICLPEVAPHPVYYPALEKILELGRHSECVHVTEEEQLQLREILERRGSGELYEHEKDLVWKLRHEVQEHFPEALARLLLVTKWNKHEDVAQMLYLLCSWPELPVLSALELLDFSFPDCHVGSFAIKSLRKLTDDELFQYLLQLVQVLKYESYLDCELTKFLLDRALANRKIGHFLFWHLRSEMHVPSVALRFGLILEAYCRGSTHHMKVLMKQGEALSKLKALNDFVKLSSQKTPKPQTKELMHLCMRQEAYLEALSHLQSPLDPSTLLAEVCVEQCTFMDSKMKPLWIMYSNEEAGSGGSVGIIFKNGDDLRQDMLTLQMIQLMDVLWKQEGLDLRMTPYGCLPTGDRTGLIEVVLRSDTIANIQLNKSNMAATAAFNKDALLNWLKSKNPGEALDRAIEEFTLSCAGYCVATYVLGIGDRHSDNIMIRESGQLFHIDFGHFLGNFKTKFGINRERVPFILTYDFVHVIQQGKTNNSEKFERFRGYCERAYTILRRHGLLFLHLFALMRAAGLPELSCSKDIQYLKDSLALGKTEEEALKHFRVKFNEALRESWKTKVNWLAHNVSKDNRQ
Chain of PI3Kδ (P27986 whole entry partner): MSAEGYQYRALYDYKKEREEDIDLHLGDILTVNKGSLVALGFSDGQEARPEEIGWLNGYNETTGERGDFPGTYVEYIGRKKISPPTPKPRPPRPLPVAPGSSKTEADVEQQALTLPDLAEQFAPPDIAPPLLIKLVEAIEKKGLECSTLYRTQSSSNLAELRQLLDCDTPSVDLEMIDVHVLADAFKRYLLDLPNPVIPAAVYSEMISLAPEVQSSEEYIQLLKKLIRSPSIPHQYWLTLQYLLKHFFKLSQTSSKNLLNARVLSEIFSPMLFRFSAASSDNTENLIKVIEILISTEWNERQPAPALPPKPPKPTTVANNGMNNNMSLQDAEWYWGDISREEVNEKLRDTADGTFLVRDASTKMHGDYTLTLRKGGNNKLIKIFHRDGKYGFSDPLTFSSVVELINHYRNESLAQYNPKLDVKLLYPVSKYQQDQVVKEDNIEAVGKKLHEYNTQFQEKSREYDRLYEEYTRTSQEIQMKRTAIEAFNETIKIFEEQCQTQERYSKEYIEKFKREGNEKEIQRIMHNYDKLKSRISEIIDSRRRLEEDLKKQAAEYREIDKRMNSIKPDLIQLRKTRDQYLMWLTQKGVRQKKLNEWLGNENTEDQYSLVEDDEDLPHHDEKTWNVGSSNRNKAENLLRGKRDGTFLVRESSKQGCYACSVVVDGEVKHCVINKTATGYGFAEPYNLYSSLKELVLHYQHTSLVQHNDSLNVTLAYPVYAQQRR

The compound `Cc1c(-c2ccccc2F)nc2ccccc2c1N1CC(C)(C)c2ccc(N3CCOCC3)cc21` [4-(3,3-dimethyl-6-(4-morpholinyl)-2,3-dihydro-1H-indol-1-yl)-2-(2-fluorophenyl)-3-methylquinoline] displayed a Ki of 47 nM. This counts as double-digit nanomolar.

As to `Cc1cnc2ccccc2c1N1CC(C)(C)c2ccc(N3CCOCC3)cc21` [4-(3,3-dimethyl-6-(4-morpholinyl)-2,3-dihydro-1H-indol-1-yl)-3-methylquinoline], the inhibition constant (Ki) amounted to 654 nM.

With `Cc1c(C2CC2)nc2ncccc2c1N1CC(C)(C)c2ncc(N3CCOCC3)cc21` [2-cyclopropyl-4-(3,3-dimethyl-6-(4-morpholinyl)-2,3-dihydro-1H-pyrrolo[3,2-b]pyridin-1-yl)-3-methyl-1,8-naphthyridine], affinity was put at a Ki of 32 nM.

In the case of `Cc1c(-c2cccc(O)n2)nc2cc(F)ccc2c1N1CC2(CCOCC2)c2ccc(N3CCOCC3)cc21` [6-(7-fluoro-3-methyl-4-(6-(4-morpholinyl)-2′,3′,5′,6′-tetrahydrospiro[indole-3,4′-pyran]-1(2H)-yl)-2-quinolinyl)-2-pyridinol], the Ki came out at 155 nM.

On to `Cc1c(-c2ccccc2S(C)(=O)=O)nc2cc(F)ccc2c1N1CC2(CCOCC2)c2ccc(N3CCOCC3)cc21` [1-(7-fluoro-3-methyl-2-(2-(methylsulfonyl)phenyl)-4-quinolinyl)-6-(4-morpholinyl)-1,2,2′,3′,5′,6′-hexahydrospiro[indole-3,4′-pyran]], for which the Ki came out at 10.2 nM.

As to `Cc1ccnc(-c2nc3cnccc3c(N3CC(C)(C)c4ncc(N5CCOCC5)cc43)c2C)c1` [4-(3,3-dimethyl-6-(4-morpholinyl)-2,3-dihydro-1H-pyrrolo[3,2-b]pyridin-1-yl)-3-methyl-2-(4-methyl-2-pyridinyl)-1,7-naphthyridine], the affinity, expressed as Ki, was 5.37 nM.

Compound `Cc1c(-c2cc(C(F)(F)F)cc(C(F)(F)F)c2)nc2cc(F)ccc2c1N1CC(C)(C)c2ccc(N3CCOCC3)cc21` [2-(3,5-bis(trifluoromethyl)phenyl)-4-(3,3-dimethyl-6-(4-morpholinyl)-2,3-dihydro-1H-indol-1-yl)-7-fluoro-3-methylquinoline] displayed a Ki of 3080 nM.

On to `Cc1nc2c(C)cc(Cl)cc2c(N2CC(C)(C)c3ccc(N4CCOCC4)cc32)c1C` [6-chloro-4-(3,3-dimethyl-6-(4-morpholinyl)-2,3-dihydro-1H-indol-1-yl)-2,3,8-trimethylquinoline], for which the Ki was 618 nM. Against the preceding compound, the Ki is about 5-fold lower.

Compound `Cc1c(-c2cc(F)ccc2F)nc2cc(F)ccc2c1N1CC(C)(C)c2ccc(N3CCOCC3)cc21` [2-(2,5-difluorophenyl)-4-(3,3-dimethyl-6-(4-morpholinyl)-2,3-dihydro-1H-indol-1-yl)-7-fluoro-3-methylquinoline] had a Ki of 20.3 nM.

On to `Cc1ncccc1-c1nc2cc(F)ccc2c(N2CC(C)(C)c3ncc(N4CCOCC4)cc32)c1C` [4-(3,3-dimethyl-6-(4-morpholinyl)-2,3-dihydro-1H-pyrrolo[3,2-b]pyridin-1-yl)-7-fluoro-3-methyl-2-(2-methyl-3-pyridinyl)quinoline], for which the Ki came to 4.07 nM.

As for `Cc1c(-c2ccccn2)nc2cc(F)cc(F)c2c1N1CC2(CCOCC2)c2ccc(N3CCOCC3)cc21` [1-(5,7-difluoro-3-methyl-2-(2-pyridinyl)-4-quinolinyl)-6-(4-morpholinyl)-1,2,2′,3′,5′,6′-hexahydrospiro[indole-3,4′-pyran]], the affinity corresponds to a Ki of 21.1 nM.

As for `CC1(C)CN(c2c(C#N)c(-c3ccccn3)nc3cc(F)ccc23)c2cc(N3CCOCC3)cnc21` [4-(3,3-dimethyl-6-(4-morpholinyl)-2,3-dihydro-1H-pyrrolo[3,2-b]pyridin-1-yl)-7-fluoro-2-(2-pyridinyl)-3-quinolinecarbonitrile], affinity was put at a Ki of 437 nM. This Ki lies about 21-fold higher than the previous one.

Consider `Cc1c(-c2ccccn2)nc2ncccc2c1N1CCOc2ccc(N3CCOCC3)cc21` [4-(3-methyl-2-(2-pyridinyl)-1,8-naphthyridin-4-yl)-6-(4-morpholinyl)-3,4-dihydro-2H-1,4-benzoxazine], for which the affinity corresponds to a Ki of 883 nM.

The compound `Cc1c(-c2cccc(F)c2)nc2ncccc2c1N1CC(C)(C)c2ncc(N3CCOCC3)cc21` [4-(3,3-dimethyl-6-(4-morpholinyl)-2,3-dihydro-1H-pyrrolo[3,2-b]pyridin-1-yl)-2-(3-fluorophenyl)-3-methyl-1,8-naphthyridine] displayed a Ki of 5.38 nM.

In turn, `Cc1c(/C=C/c2ccccc2)nc2cc(F)cc(F)c2c1N1CC(C)(C)c2ncc(N3CCOCC3)cc21` [4-(3,3-dimethyl-6-(4-morpholinyl)-2,3-dihydro-1H-pyrrolo[3,2-b]pyridin-1-yl)-5,7-difluoro-3-methyl-2-((E)-2-phenylethenyl)quinoline] yielded a Ki of 88.3 nM.

As to `Cc1c(C(F)(F)F)nc2ccc(Cl)cc2c1N1CC(C)(C)c2ccc(N3CCOCC3)cc21` [6-chloro-4-(3,3-dimethyl-6-(4-morpholinyl)-2,3-dihydro-1H-indol-1-yl)-3-methyl-2-(trifluoromethyl)quinoline], the inhibition constant Ki came to 985 nM.

For the compound `COc1ccccc1-c1cc(N2CC(C)(C)c3ccc(N4CCOCC4)cc32)c2cc(Cl)ccc2n1` [6-chloro-4-(3,3-dimethyl-6-(4-morpholinyl)-2,3-dihydro-1H-indol-1-yl)-2-(2-methoxyphenyl)quinoline], affinity was put at a Ki of 5560 nM.

`Cc1c(N2CCN(S(C)(=O)=O)CC2)nc2cc(F)cc(F)c2c1N1CC2(CCOCC2)c2ncc(N3CCOCC3)cc21` [1′-(5,7-difluoro-3-methyl-2-(4-(methylsulfonyl)-1-piperazinyl)-4-quinolinyl)-6′-(4-morpholinyl)-1′,2,2′,3,5,6-hexahydrospiro[pyran-4,3′-pyrrolo[3,2-b]pyridine]] showed a Ki of 2.3 nM. This Ki is about 2400-fold lower than that of the compound before.

`Cc1cncc(-c2nc3cc(F)cc(F)c3c(N3CC(C)(C)c4ncc(N5CCOCC5)cc43)c2C)c1` [4-(3,3-dimethyl-6-(4-morpholinyl)-2,3-dihydro-1H-pyrrolo[3,2-b]pyridin-1-yl)-5,7-difluoro-3-methyl-2-(5-methyl-3-pyridinyl)quinoline] gave a Ki of 3 nM.

`Cc1c(-c2cccc3[nH]ccc23)nc2cc(F)cc(F)c2c1N1CC(C)(C)c2ncc(N3CCOCC3)cc21` [4-(3,3-dimethyl-6-(4-morpholinyl)-2,3-dihydro-1H-pyrrolo[3,2-b]pyridin-1-yl)-5,7-difluoro-2-(1H-indol-4-yl)-3-methylquinoline]: the Ki worked out at 2.77 nM.

Compound `Cc1c(-c2cccnc2)nc2cc(F)ccc2c1N1CC2(CCOCC2)c2ccc(N3CCOCC3)cc21` [1-(7-fluoro-3-methyl-2-(3-pyridinyl)-4-quinolinyl)-6-(4-morpholinyl)-1,2,2′,3′,5′,6′-hexahydrospiro[indole-3,4′-pyran]] showed a Ki of 47.5 nM.

Turning to `Cc1c(N2CC(C)(C)CC2=O)nc2cc(F)cc(F)c2c1N1CC2(CCOCC2)c2ncc(N3CCOCC3)cc21` [1-(5,7-difluoro-3-methyl-4-(6′-(4-morpholinyl)-2,3,5,6-tetrahydrospiro[pyran-4,3′-pyrrolo[3,2-b]pyridin]-1′(2′H)-yl)-2-quinolinyl)-4,4-dimethyl-2-pyrrolidinone], the Ki amounted to 2.24 nM.

`Cc1ccc(S(C)(=O)=O)c(-c2nc3cc(F)cc(F)c3c(N3CC4(CCOCC4)c4ncc(N5CCOCC5)cc43)c2C)c1` [1′-(5,7-difluoro-3-methyl-2-(5-methyl-2-(methylsulfonyl)phenyl)-4-quinolinyl)-6′-(4-morpholinyl)-1′,2,2′,3,5,6-hexahydrospiro[pyran-4,3′-pyrrolo[3,2-b]pyridine]] gave a Ki of 1.51 nM.

With `Cc1c(-c2ccccc2F)nc2cc(F)ccc2c1N1CC(C)(C)c2ccc(N3CCOCC3)cc21` [4-(3,3-dimethyl-6-(4-morpholinyl)-2,3-dihydro-1H-indol-1-yl)-7-fluoro-2-(2-fluorophenyl)-3-methylquinoline], the Ki is 197 nM. This Ki is about 130-fold higher than that of the compound before.

Turning to `Cc1c(-c2ccccn2)nc2c(F)cccc2c1N1CC(C)(C)c2ccc(N3CCOCC3)cc21` [4-(3,3-dimethyl-6-(4-morpholinyl)-2,3-dihydro-1H-indol-1-yl)-8-fluoro-3-methyl-2-(2-pyridinyl)quinoline], the affinity, expressed as Ki, was 93.7 nM.

Compound `Cc1c(-c2ccccn2)nc2cc(F)cc(F)c2c1N1CC2(CCOCC2)c2ncc(N3CCOCC3)cc21` [1′-(5,7-difluoro-3-methyl-2-(2-pyridinyl)-4-quinolinyl)-6′-(4-morpholinyl)-1′,2,2′,3,5,6-hexahydrospiro[pyran-4,3′-pyrrolo[3,2-b]pyridine]] showed an inhibitory constant (Ki) of 9.44 nM. Compared with the last compound, the Ki is about 9.9-fold lower.

In turn, `Cc1c(-n2ccccc2=O)nc2cc(F)cc(F)c2c1N1CC2(CCOCC2)c2ccc(N3CCOCC3)cc21` [1-(5,7-difluoro-3-methyl-4-(6-(4-morpholinyl)-2′,3′,5′,6′-tetrahydrospiro[indole-3,4′-pyran]-1(2H)-yl)-2-quinolinyl)-2(1H)-pyridinone] returned a Ki of 4.64 nM.

`Cc1nc2ccc(Cl)cc2c(-n2ccc3c(O)cc(-c4cn[nH]c4)cc32)c1C` [1-(6-chloro-2,3-dimethyl-4-quinolinyl)-6-(1H-pyrazol-4-yl)-1H-indol-4-ol] yielded a Ki of 4110 nM.

As for `Cc1ncccc1-c1nc2cc(F)ccc2c(N2CC3(CCOCC3)c3ccc(N4CCOCC4)cc32)c1C` [1-(7-fluoro-3-methyl-2-(2-methyl-3-pyridinyl)-4-quinolinyl)-6-(4-morpholinyl)-1,2,2′,3′,5′,6′-hexahydrospiro[indole-3,4′-pyran]], the Ki came to 14.5 nM.

`Cc1c(-c2cncc(S(C)(=O)=O)c2)nc2cc(F)cc(F)c2c1N1CC(C)(C)c2ncc(N3CCOCC3)cc21` [4-(3,3-dimethyl-6-(4-morpholinyl)-2,3-dihydro-1H-pyrrolo[3,2-b]pyridin-1-yl)-5,7-difluoro-3-methyl-2-(5-(methylsulfonyl)-3-pyridinyl)quinoline] displayed a Ki of 16.7 nM.

For the compound `CC1(C)CN(c2c3c(nc4ccc(Cl)cc24)CCCC3)c2cc(N3CCOCC3)ccc21` [7-chloro-9-(3,3-dimethyl-6-(4-morpholinyl)-2,3-dihydro-1H-indol-1-yl)-1,2,3,4-tetrahydroacridine], the affinity, expressed as Ki, was 2620 nM.

As to `Cc1c(N2CCCC2=O)nc2cc(F)cc(F)c2c1N1CC(C)(C)c2ncc(N3CCOCC3)cc21` [1-(4-(3,3-dimethyl-6-(4-morpholinyl)-2,3-dihydro-1H-pyrrolo[3,2-b]pyridin-1-yl)-5,7-difluoro-3-methyl-2-quinolinyl)-2-pyrrolidinone], the Ki came to 1.54 nM.
